Laboratory results published in ChEMBL document CHEMBL5678797, “AZD7762, a novel checkpoint kinase inhibitor, drives checkpoint abrogation and potentiates DNA-targeted therapies” (Mol Cancer Ther, 2008).
Active and inactive are the calls of the source. The calls are words filed in the database; no cut-off is given here.

How the values were obtained:
SW-620 [1] = experiment: Antitumor activity against human SW620 cells xenografted in athymic mouse model assessed as tumor free survival at 50 mg/kg measured after 17 to 94 days post tumor implantation by caliper method; type: functional, organism-based; conditions: time 17-94 day
SW-620 [2] = experiment: Antitumor activity against human SW620 cells xenografted in athymic mouse model assessed as complete tumor regression at 50 mg/kg measured after 17 to 94 days post tumor implantation by caliper method; type: functional, organism-based; conditions: time 17-94 day
SW-620 [3] = experiment: Induction of cell cycle arrest in human SW620 cells assessed as increase in cdc25A level at 0.1 uM measured after 8 hrs by Western blot analysis; type: functional, cell-based

Structure (SMILES)	Activity (SW-620 [1])	Activity (SW-620 [2])	Activity (SW-620 [3])
CCc1c2c(nc3ccc(OC(=O)N4CCC(N5CCCCC5)CC4)cc13)-c1cc3c(c(=O)n1C2)COC(=O)[C@]3(O)CC	inactive	inactive	–
Nc1ccn([C@@H]2O[C@H](CO)[C@@H](O)C2(F)F)c(=O)n1	–	–	inactive
